This is an account of results in patent US20150175599A1, “FAAH Inhibitors” (Ironwood Pharmaceuticals, Inc., priority 2010, published 2015).

Bounds are passed on as bounds.

For data set [1], the target named is T1, FAAH (Homo sapiens, UniProt O00519).
T1 construct: Reactions were initiated by adding 12.5 μg of brain microsome; tissue ABS, Inc; host or cells: human brain cerebral cortex, membrane/microsome fraction pooled from 3 donors
T1 sequence (O00519 1-579): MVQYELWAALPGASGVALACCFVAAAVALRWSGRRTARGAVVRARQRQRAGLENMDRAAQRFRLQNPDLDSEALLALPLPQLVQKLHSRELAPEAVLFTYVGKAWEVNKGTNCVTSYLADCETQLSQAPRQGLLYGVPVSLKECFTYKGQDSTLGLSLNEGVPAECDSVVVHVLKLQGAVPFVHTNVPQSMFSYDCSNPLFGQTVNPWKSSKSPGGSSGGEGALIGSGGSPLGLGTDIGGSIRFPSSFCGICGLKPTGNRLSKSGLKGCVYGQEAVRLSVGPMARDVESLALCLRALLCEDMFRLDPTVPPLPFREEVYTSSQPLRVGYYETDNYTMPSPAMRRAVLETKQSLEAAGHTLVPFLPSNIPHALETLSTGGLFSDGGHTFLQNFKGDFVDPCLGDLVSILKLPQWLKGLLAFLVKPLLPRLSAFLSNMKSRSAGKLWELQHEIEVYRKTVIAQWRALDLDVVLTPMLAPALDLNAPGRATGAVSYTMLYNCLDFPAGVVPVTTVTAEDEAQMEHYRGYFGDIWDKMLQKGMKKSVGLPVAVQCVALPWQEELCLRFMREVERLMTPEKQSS
The data set is described as follows: FAAH inhibition, human brain membrane homogenate assay. The data set is classed as biochemical. The conditions noted are these: human brain homogenate; average activity; read-out: Human brain Extract FAAH IC50.

For data set [2], the target named is T2, hERG channel (Homo sapiens, UniProt Q12809).
T2 construct: expressed in transfected cells; host or cells: CHO (hERG-CHO), under Geneticin selection
The data set is described as follows: hERG channel inhibition, automated patch clamp (IonWorks HT, hERG-CHO). The data set is classed as cell-based. The conditions noted are these: CHO cells expressing hERG, 600 s incubation; for inhibition at 600 s, 1 µM: 1 μM compound, read-out: hERG Channel Inhibition % (at 1 μM), vehicle-subtracted values; for inhibition at 600 s, 10 µM: 10 μM compound, read-out: hERG Channel Inhibition % (at 10 μM), vehicle-subtracted values. In short, it runs like this: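 hERG-CHO cells held at 30 °C for 48 h before IonWorks HT patch clamp: from −80 mV to +40 for 2 s, then −50 mV for 2 s tail, repeated three times, before and after 600 s compound exposure. Third-pulse post/pre tail amplitude ratio gave percent inhibition; cells with seal <50 MOhm or tail <250 pA excluded.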

Data set [3] in a line: Pharmacokinetic study, plasma level 2 hours after oral dosing in rats. The data set is classed as in vivo. In short, it runs like this: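 Rats dosed by oral gavage in 1% DMA/99% Vitamin E TPGS; EDTA plasma taken by retro-orbital bleed 2 h post-dose. Acetonitrile precipitation with internal standard, LC/MS/MS quantitation against plasma standards 0.1–3000 ng/mL.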

The IC50 is the concentration that gives 50% inhibition. For orientation: inhibition means the share of the control response that was lost under treatment.

T2 sequence (Q12809 whole entry): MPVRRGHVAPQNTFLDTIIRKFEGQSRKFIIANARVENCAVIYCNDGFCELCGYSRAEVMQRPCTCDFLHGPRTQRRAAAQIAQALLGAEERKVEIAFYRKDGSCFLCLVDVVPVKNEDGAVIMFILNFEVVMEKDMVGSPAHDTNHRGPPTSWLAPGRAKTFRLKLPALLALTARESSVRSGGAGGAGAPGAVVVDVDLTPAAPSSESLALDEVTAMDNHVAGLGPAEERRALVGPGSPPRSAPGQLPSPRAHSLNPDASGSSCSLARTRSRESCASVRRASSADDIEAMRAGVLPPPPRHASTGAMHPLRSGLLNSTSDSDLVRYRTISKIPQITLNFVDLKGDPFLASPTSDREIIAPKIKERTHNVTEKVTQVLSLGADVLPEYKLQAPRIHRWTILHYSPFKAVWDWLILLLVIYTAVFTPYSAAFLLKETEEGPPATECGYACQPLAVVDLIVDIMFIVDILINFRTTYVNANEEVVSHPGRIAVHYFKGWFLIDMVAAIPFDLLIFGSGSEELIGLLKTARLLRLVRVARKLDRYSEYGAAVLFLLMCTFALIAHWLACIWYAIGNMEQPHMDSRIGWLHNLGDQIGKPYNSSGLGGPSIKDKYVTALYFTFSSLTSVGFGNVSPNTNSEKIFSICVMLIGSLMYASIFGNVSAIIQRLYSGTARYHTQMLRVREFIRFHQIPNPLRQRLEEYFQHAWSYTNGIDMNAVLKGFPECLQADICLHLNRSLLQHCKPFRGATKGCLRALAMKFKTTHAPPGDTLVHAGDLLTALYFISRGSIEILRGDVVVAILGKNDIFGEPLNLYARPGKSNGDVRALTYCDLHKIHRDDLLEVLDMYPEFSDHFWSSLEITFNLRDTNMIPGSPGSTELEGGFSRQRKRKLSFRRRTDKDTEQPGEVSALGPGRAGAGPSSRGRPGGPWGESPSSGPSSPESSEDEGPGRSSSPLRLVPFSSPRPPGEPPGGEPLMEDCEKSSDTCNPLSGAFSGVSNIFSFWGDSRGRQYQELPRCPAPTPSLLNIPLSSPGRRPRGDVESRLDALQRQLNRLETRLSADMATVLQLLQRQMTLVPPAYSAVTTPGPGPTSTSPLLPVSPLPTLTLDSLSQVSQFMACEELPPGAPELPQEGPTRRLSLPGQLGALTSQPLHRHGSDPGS

`COc1ccc(Cn2c(C)c(C(=O)C(=O)Nc3ccnc(OC)c3)c3cc(OC)c(C)cc32)nc1` [Compound 96, 2-(5-methoxy-1-((5-methoxypyridin-2-yl)methyl)-2,6-dimethyl-1H-indol-3-yl)-N-(2-methoxypyridin-4-yl)-2-oxoacetamide]: the IC50 in data set [1] was < 0.1 µM. Further, in data set [2], the inhibition at 600 s, 1 µM was < 25% and the inhibition at 600 s, 10 µM was < 25%. For the same molecule, the “2 hr plasma level-ng/mL (rat, 10 mg/kg PO, 2 hr)” value (from here on “2 hr plasma level-ng/mL”) in data set [3] is “C (C = between 100 nM and 1000 nM)”.

In the case of `COc1cc(NC(=O)C(=O)c2c(C)n(Cc3ncc(Cl)cc3F)c3cc(Cl)c(OC)cc23)ccn1` [Compound 97, 2-(6-chloro-1-((5-chloro-3-fluoropyridin-2-yl)methyl)-5-methoxy-2-methyl-1H-indol-3-yl)-N-(2-methoxypyridin-4-yl)-2-oxoacetamide], the IC50 in data set [1] was < 0.1 µM. Besides, in data set [2], the inhibition at 600 s, 1 µM is < 25% and the inhibition at 600 s, 10 µM was < 25%. For the same molecule, the “2 hr plasma level-ng/mL” value in data set [3] is “C (C = between 100 nM and 1000 nM)”.

On to `COc1ccc2c(c1)c(C(=O)C(=O)Nc1ccnc(OC)c1)c(C)n2Cc1ccccn1` [Compound 77, 2-(5-methoxy-2-methyl-1-(pyridin-2-ylmethyl)-1H-indol-3-yl)-N-(2-methoxypyridin-4-yl)-2-oxoacetamide], for which the IC50 in data set [1] fell in the range of 0.1 to 1 µM. In data set [2], the inhibition at 600 s, 1 µM was < 25% and the inhibition at 600 s, 10 µM is < 25%. For the same molecule, in data set [3], the “2 hr plasma level-ng/mL” value was “C (C = between 100 nM and 1000 nM)”.

Regarding `COc1ccc(Cn2c(C)c(C(=O)C(=O)Nc3ccnc(OC)c3)c3cc(OC)c(F)cc32)nc1` [Compound 32, 2-(6-fluoro-5-methoxy-1-((5-methoxypyridin-2-yl)methyl)-2-methyl-1H-indol-3-yl)-N-(2-methoxypyridin-4-yl)-2-oxoacetamide], the IC50 in data set [1] is < 0.1 µM. In data set [2], the inhibition at 600 s, 1 µM was < 25% and the inhibition at 600 s, 10 µM is < 25%. The “2 hr plasma level-ng/mL” value in data set [3] is “C (C = between 100 nM and 1000 nM)”.

As for `COc1cc(NC(=O)C(=O)c2c(C)n(Cc3ccc(Cl)cc3)c3ccc(OC)nc23)ccn1` [Compound 36, 2-(1-(4-chlorobenzyl)-5-methoxy-2-methyl-1H-pyrrolo[3,2-b]pyridin-3-yl)-N-(2-methoxypyridin-4-yl)-2-oxoacetamide], in data set [1], the IC50 is < 0.1 µM. In data set [2], the inhibition at 600 s, 1 µM was < 25% and the inhibition at 600 s, 10 µM is < 25%. Further, in data set [3], the “2 hr plasma level-ng/mL” value is “C (C = between 100 nM and 1000 nM)”.

`COc1cc(NC(=O)C(=O)c2c(C)n(Cc3ncc(Cl)cc3Cl)c3ccc(C)cc23)ccn1` [Compound 30, 2-(1-((3,5-dichloropyridin-2-yl)methyl)-2,5-dimethyl-1H-indol-3-yl)-N-(2-methoxypyridin-4-yl)-2-oxoacetamide]: the IC50 in data set [1] is < 0.1 µM. Further, in data set [2], the inhibition at 600 s, 1 µM was < 25% and the inhibition at 600 s, 10 µM fell in the range of 50 to 75%. Further, in data set [3], the “2 hr plasma level-ng/mL” value is “C (C = between 100 nM and 1000 nM)”.

As for `Cc1c(C(=O)C(=O)Nc2cccc(Cl)c2)c2cc(O)ccc2n1Cc1ccc(Cl)cc1` [Compound 71, 2-(1-(4-chlorobenzyl)-5-hydroxy-2-methyl-1H-indol-3-yl)-N-(3-chlorophenyl)-2-oxoacetamide], in data set [1], the IC50 is < 0.1 µM. In data set [2], the inhibition at 600 s, 1 µM was < 25% and the inhibition at 600 s, 10 µM is < 25%. Moreover, the “2 hr plasma level-ng/mL” value in data set [3] is “A (A = Less than 10 nM)”.

Turning to `COc1cc(NC(=O)C(=O)c2c(C)n(Cc3ccc(Cl)cc3)c3ccc(C(C)=O)cc23)ccn1` [Compound 5, 2-(5-acetyl-1-(4-chlorobenzyl)-2-methyl-1H-indol-3-yl)-N-(2-methoxypyridin-4-yl)-2-oxoacetamide], the IC50 in data set [1] was < 0.1 µM. In addition, in data set [2], the inhibition at 600 s, 1 µM was < 25% and the inhibition at 600 s, 10 µM fell in the range of 25 to 50%. The “2 hr plasma level-ng/mL” value in data set [3] is “C (C = between 100 nM and 1000 nM)”.
